Results published in paper PMC11053168, “Agonist-selective activation of individual G-proteins by muscarinic receptors” (Scientific Reports, 2024).
Like-named read-outs stand apart in the source and are kept apart here.

What was measured:
M3 receptor = M3 receptor (Homo sapiens, UniProt P20309); assay: BRET real-time monitoring of G-protein activation via M3 in HEK293T/17 cells; format: cell-based; parameters: expressed in transfected cells; host or cells: HEK293T/17 cells, transient transfection; conditions: for Activation of Gαq/11 types: saturating concentration (100 μM; 1 mM for JB-12-2, JB-13-1); for Response at Gα15: saturating concentration
Sequence of M3 receptor (P20309 whole entry): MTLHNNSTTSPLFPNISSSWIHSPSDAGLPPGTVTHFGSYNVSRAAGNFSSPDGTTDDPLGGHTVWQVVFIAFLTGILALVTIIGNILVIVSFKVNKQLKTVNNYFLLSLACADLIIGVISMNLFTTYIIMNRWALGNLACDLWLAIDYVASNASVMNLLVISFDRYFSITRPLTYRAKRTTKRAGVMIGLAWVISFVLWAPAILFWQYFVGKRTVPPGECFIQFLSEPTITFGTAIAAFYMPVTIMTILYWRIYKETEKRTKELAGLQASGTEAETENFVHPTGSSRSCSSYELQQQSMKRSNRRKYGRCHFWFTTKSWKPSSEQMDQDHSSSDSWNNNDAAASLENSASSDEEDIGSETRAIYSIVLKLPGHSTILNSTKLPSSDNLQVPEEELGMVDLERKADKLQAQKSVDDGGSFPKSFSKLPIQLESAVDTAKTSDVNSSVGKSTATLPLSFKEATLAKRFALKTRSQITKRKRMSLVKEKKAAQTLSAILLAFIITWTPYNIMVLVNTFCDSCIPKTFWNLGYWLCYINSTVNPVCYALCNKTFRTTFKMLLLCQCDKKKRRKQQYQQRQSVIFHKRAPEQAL
Experimental: (§1) HE/K293T17 cells were obtained from The Global Bioresource Center ATCC (Manassas, VA, USA). Cells were grown in 100 mm petri dishes in Dulbecco’s modified Eagle’s medium (DMEM) supplemented with 10% fetal bovine serum (FBS), MEM non-essential amino acids, 1 mM sodium pyruvate, and antibiotics (100 units/ml penicillin and 100 μg/ml streptomycin) at 37 °C in a humidified incubator containing 5% CO2[41]. Transfection was performed according to Masuho et al.[41]. […] Gα14 subunit was co-transfected with Ric-8A chaperone (0.21 μg). Cells were cotransfected with a pcDNA3.1 construct encoding the catalytic subunit of pertussis toxin (PTX-S1) (0.21 μg) and constructs encoding Gα15, Gα14, Gα11, Gαq to ensure that the small BRET signals were not contaminated by the possible recruitment of endogenous Gαi/o proteins. The empty vector pcDNA3.1 was used to normalize the amount of DNA in each transfection.
(§2) To examine the activation of G-protein signalling in live cells, agonist-dependent cellular measurements of BRET between Venus-Gβ1γ2 and masGRK3ct-Nluc were performed as described by Masuho et al.[41]. […] Cells were harvested by centrifugation at 500×g for 5 min and were resuspended in BRET buffer. About 50,000 to 100,000 cells per well were distributed in 96-well flat-bottomed white microplates (Greiner Bio-One) in a volume of 25 µl. […] BRET measurements were made with a microplate reader (POLARstar Omega, BMG Labtech) equipped with two emission photomultiplier tubes, which enabled the detection of two emissions simultaneously with the highest possible resolution of 20 ms per data point. All measurements were performed at room temperature. […] The average baseline value (basal BRET ratio) recorded before stimulation of cells with an agonist was subtracted from the experimental BRET signal values to obtain the ΔBRET ratio.

M5 muscarinic receptor = biological target: T1, M5 muscarinic receptor (Homo sapiens, UniProt P08912); assay: [3H]NMS competition binding, membranes from CHO cells expressing M5
T1 construct: membranes
T1 sequence (P08912 1-532): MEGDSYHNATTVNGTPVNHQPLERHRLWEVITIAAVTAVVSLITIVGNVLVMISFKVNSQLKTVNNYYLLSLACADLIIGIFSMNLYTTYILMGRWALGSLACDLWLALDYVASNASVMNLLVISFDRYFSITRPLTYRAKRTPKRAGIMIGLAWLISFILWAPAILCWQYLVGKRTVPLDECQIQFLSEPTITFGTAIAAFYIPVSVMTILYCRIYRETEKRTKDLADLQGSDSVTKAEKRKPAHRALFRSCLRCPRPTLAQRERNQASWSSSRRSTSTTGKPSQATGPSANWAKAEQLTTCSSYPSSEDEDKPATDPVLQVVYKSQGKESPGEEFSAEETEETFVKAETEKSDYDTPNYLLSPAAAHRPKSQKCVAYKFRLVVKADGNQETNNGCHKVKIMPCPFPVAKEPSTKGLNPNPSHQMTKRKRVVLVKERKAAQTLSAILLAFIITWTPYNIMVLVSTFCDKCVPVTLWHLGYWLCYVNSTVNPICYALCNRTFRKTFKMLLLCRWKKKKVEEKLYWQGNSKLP
Experimental: Cells were cultured as described previously by Randakova et al.[33]. […] The medium was supplemented with 5 mM butyrate for the last 24 h of culture to increase receptor expression. Cells were washed with (phosphate-buffered saline (PBS), mechanically harvested by scraper and centrifugated 1000 × g for 5 min. Cell pellets were kept at − 80 °C.
Membranes were prepared as described previously by Randakova et al.[33]. Cells harvested from twenty 100 mm petri dishes (CHO) or 30 ml of cell suspension (Sf9) were suspended in 20 ml of ice-cold incubation medium (100 mM NaCl, 20 mM Na-HEPES, 10 mM MgCl2, pH 7.4) supplemented with 10 mM EDTA and homogenized on ice by two 30‐s strokes using a Polytron homogenizer (Ultra-Turrax; Janke & Kunkel GmbH & Co. KG, IKA-Labortechnik, Staufen, Germany) with a 30 s pause between strokes. Cell homogenates were centrifuged for 5 min at 1000×g to remove whole cells and cell nuclei. The resulting supernatants were centrifuged for 30 min at 30,000×g. Pellets were suspended in a fresh incubation medium, incubated on ice for 30 min, and centrifuged again. The resulting membrane pellets were kept at − 80 °C until assayed within 10 weeks.
Non-specific binding was determined in the presence of 10 μM unlabelled atropine. Incubations were terminated by filtration through filtration plates multiscreen 96 well Harvest (Merck Millipore) using a Brandel cell harvester (Brandel, Gaithersburg, MD, USA). Filtration plates were dried in a microwave oven, and then 40 μl of liquid scintillator Rotiscint eco plus (Roth) was added. The filtration plates were counted in the Microbeta scintillation counter (PerkinElmer). […] The inhibition constant KI was calculated according to Eq. (2).
Inhibition constants KI were calculated according to Eq. (2).2 KI=IC50/1+D/KD where IC50 is calculated according to Eq.

M1 receptor = biological target: T2, M1 receptor (Homo sapiens, UniProt P11229); assay: BRET real-time monitoring of Gq/11 activation via M1 in HEK293T/17 cells; format: cell-based; parameters: expressed in transfected cells; host or cells: HEK293T/17 cells, transient transfection; conditions: for Activation of Gαq/11 types: saturating concentration (100 μM; 1 mM for JB-12-2, JB-13-1); for Activation magnitude at G11, % of CBC / Activation magnitude at G15, % of CBC / Activation magnitude at Gq, % of CBC / Activation magnitude at Gα14, % of CBC: 100 μM
T2 sequence (P11229 1-460): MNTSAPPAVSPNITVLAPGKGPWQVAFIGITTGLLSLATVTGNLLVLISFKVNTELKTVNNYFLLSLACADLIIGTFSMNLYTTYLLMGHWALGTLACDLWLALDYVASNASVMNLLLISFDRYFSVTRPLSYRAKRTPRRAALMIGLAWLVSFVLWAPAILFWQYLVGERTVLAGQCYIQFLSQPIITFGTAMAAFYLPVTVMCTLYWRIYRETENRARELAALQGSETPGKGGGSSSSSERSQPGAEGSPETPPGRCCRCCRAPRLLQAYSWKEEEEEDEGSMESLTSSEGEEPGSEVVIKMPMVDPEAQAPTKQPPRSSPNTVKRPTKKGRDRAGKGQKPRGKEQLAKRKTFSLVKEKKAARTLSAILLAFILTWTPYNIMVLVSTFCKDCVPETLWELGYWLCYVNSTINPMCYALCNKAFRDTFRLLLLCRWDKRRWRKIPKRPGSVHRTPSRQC
Experimental: as §1, §2

## c1csc(C[N+]23CCC(CC2)CC3)c1 [JB-8A]
M3 receptor
  Activation of Gαq/11 types: did not activate any Gαq/11 type
M5 muscarinic receptor
  Ki: 9.33 µM
M1 receptor
  Activation of Gαq/11 types: did not activate any Gαq/11 type

## C[N+]1(Cc2cccs2)CCOCC1 [JB-12-2]
M3 receptor
  Response at Gα15: activated
  Activation of Gαq/11 types: activated all Gαq/11 types
M5 muscarinic receptor
  Ki: 112 µM
M1 receptor
  Activation of Gαq/11 types: activated all Gαq/11 types

## COC(=O)C1=CCCN(Cc2cccs2)C1 [JB-13-1]
M3 receptor
  Activation of Gαq/11 types: did not activate any Gαq/11 type
M5 muscarinic receptor; M5, competition with [3H]NMS, mean ± SD, three experiments, read-out: Binding affinity, negative logarithm of Ki (converted)
  Ki: 468 µM
M1 receptor
  Activation of Gαq/11 types: did not activate any Gαq/11 type

## C[N+]1(Cc2cccs2)CC=CCC1 (stereo not shown) [JR-6, 1-methyl-1-[(thiophen-2-yl)methyl]-1,2,3,6-tetra hydropyridin-1-ium]
M3 receptor; 100 μM
  Activation magnitude at Gq, % of CBC: approximately 30%
  Response at Gα14: weak response
M3 receptor
  Response at Gα15: no response
M1 receptor
  Activation magnitude at G11, % of CBC: approximately 50%
  Activation magnitude at G15, % of CBC: approximately 50%
  Activation magnitude at Gq, % of CBC: approximately 50%
  Activation magnitude at Gα14, % of CBC: approx. 10%

## C[N+]1(Cc2ccc(Cl)s2)CC=CCC1 (stereo not shown) [PN-152, 1-[(5-chlorothiophen-2-yl)methyl]-1-methyl-1,2,3,6-tetrahydropyridin-1-ium]
M3 receptor; 100 μM
  Activation magnitude at Gq, % of CBC: 10%
M1 receptor
  Activation magnitude at G11, % of CBC: approx. 30%
  Activation magnitude at G15, % of CBC: approx. 30%
  Activation magnitude at Gq, % of CBC: approx. 30%
  Activation magnitude at Gα14, % of CBC: did not activate
